Experimental data published in patent publication US9265253B2, “Use of macrocyclic picolinamides as fungicides” (DOW AGROSCIENCES LLC, priority 2013, dated 2016).

Key:
Type in all cases: in vivo
Cercospora beticola = experiment: Leaf Spot of Sugar Beets (CERCBE) disease control; conditions: Cercospora beticola, topical, 24 h, 1 Day Protectant, sugar beet, read-out: Disease Control CERCBE 1 DP
Method: Technical grades of materials were dissolved in acetone, which were then mixed with nine volumes of water containing 110 ppm Triton X-100. The fungicide solutions were applied onto wheat seedlings using an automated booth sprayer to run-off. All sprayed plants were allowed to air dry prior to further handling. All fungicides were evaluated using the aforementioned method for their activity vs. all target diseases. Wheat leaf blotch and brown rust activity were also evaluated using track spray applications, in which case the fungicides were formulated as EC formulations, containing 0.1% Trycol 5941 in the spray solutions. Wheat plants (variety Yuma) were grown from seed in a greenhouse in 50% mineral soil/50% soil-less Metro mix until the first leaf was fully emerged, with 7-10 seedlings per pot. These plants were inoculated with an aqueous spore suspension of Septoria tritici either prior to or after fungicide treatments. After inoculation the plants were kept in 100% relative humidity (one day in a dark dew chamber followed by two to three days in a lighted dew chamber at 20° C.) to permit spores to germinate and infect the leaf. The plants were then transferred to a greenhouse set at 20° C. for disease to develop. When disease symptoms were fully expressed on the 1st leaves of untreated plants, infection levels were assessed on a scale of 0 to 100 percent disease severity. Percent disease control was calculated using the ratio of disease severity on treated plants relative to untreated plants. Sugar beet plants (variety HH88) were grown in soil-less Metro mix and trimmed regularly to maintain a uniform plant size prior to test. Plants were inoculated with a spore suspension 24 hr after fungicide treatments. Inoculated plants were kept in a dew chamber at 22° C. for 48 hr then incubated in a greenhouse set at 24° C. under a clear plastic hood with bottom ventilation until disease symptoms were fully expressed. Fungicide formulation, application and disease assessment on the sprayed leaves followed the procedures as described in the Example A.

Rhyncosporium secalis = experiment: Barley Scald (RHYNSE) disease control; conditions: Hordeum vulgare, 24 h, 1 Day Protectant, read-out: Disease Control RHYNSE 1 DP
Method: Technical grades of materials were dissolved in acetone, which were then mixed with nine volumes of water containing 110 ppm Triton X-100. The fungicide solutions were applied onto wheat seedlings using an automated booth sprayer to run-off. All sprayed plants were allowed to air dry prior to further handling. All fungicides were evaluated using the aforementioned method for their activity vs. all target diseases. Wheat leaf blotch and brown rust activity were also evaluated using track spray applications, in which case the fungicides were formulated as EC formulations, containing 0.1% Trycol 5941 in the spray solutions. Wheat plants (variety Yuma) were grown from seed in a greenhouse in 50% mineral soil/50% soil-less Metro mix until the first leaf was fully emerged, with 7-10 seedlings per pot. These plants were inoculated with an aqueous spore suspension of Septoria tritici either prior to or after fungicide treatments. After inoculation the plants were kept in 100% relative humidity (one day in a dark dew chamber followed by two to three days in a lighted dew chamber at 20° C.) to permit spores to germinate and infect the leaf. The plants were then transferred to a greenhouse set at 20° C. for disease to develop. When disease symptoms were fully expressed on the 1st leaves of untreated plants, infection levels were assessed on a scale of 0 to 100 percent disease severity. Percent disease control was calculated using the ratio of disease severity on treated plants relative to untreated plants. Barley seedlings (variety Harrington) were propagated in soil-less Metro mix, with each pot having 8 to 12 plants, and used in the test when first leaf was fully emerged. Test plants were inoculated by an aqueous spore suspension of Rhyncosporium secalis 24 hr after fungicide treatments. After inoculation the plants were kept in a dew room at 20° C. with 100% relative humidity for 48 hr. The plants were then transferred to a greenhouse set at 20° C. for disease to develop. Fungicide formulation, application and disease assessment on the sprayed leaves followed the procedures as described in the Example A.

[1] = system: Glomerella lagenarium; Anamorph: Colletotrichum lagenarium; experiment: Cucumber Anthracnose (COLLLA) disease control; conditions: Colletotrichum orbiculare, topical, 24 h, 1 Day Protectant, read-out: Disease Control COLLLA 1 DP
Method: Technical grades of materials were dissolved in acetone, which were then mixed with nine volumes of water containing 110 ppm Triton X-100. The fungicide solutions were applied onto wheat seedlings using an automated booth sprayer to run-off. All sprayed plants were allowed to air dry prior to further handling. All fungicides were evaluated using the aforementioned method for their activity vs. all target diseases. Wheat leaf blotch and brown rust activity were also evaluated using track spray applications, in which case the fungicides were formulated as EC formulations, containing 0.1% Trycol 5941 in the spray solutions. Wheat plants (variety Yuma) were grown from seed in a greenhouse in 50% mineral soil/50% soil-less Metro mix until the first leaf was fully emerged, with 7-10 seedlings per pot. These plants were inoculated with an aqueous spore suspension of Septoria tritici either prior to or after fungicide treatments. After inoculation the plants were kept in 100% relative humidity (one day in a dark dew chamber followed by two to three days in a lighted dew chamber at 20° C.) to permit spores to germinate and infect the leaf. The plants were then transferred to a greenhouse set at 20° C. for disease to develop. When disease symptoms were fully expressed on the 1st leaves of untreated plants, infection levels were assessed on a scale of 0 to 100 percent disease severity. Percent disease control was calculated using the ratio of disease severity on treated plants relative to untreated plants. Cucumber seedlings (variety Bush Pickle) were propagated in soil-less Metro mix, with each pot having one plant, and used in the test when 12 to 14 days old. Test plants were inoculated with an aqueous spore suspension of Colletotrichum lagenarium 24 hr after fungicide treatments. After inoculation the plants were kept in a dew room at 22° C. with 100% relative humidity for 48 hr to permit spores to germinate and infect the leaf. The plants were then transferred to a growth room set at 22° C. for disease to develop. Fungicide formulation, application and disease assessment on the sprayed leaves followed the procedures as described in the Example A.

Uncinula necator = experiment: Grape Powdery Mildew (UNCINE) disease control; conditions: Erysiphe necator, topical, 24 h, 1 Day Protectant, read-out: Disease Control UNCINE 1 DP
Method: Technical grades of materials were dissolved in acetone, which were then mixed with nine volumes of water containing 110 ppm Triton X-100. The fungicide solutions were applied onto wheat seedlings using an automated booth sprayer to run-off. All sprayed plants were allowed to air dry prior to further handling. All fungicides were evaluated using the aforementioned method for their activity vs. all target diseases. Wheat leaf blotch and brown rust activity were also evaluated using track spray applications, in which case the fungicides were formulated as EC formulations, containing 0.1% Trycol 5941 in the spray solutions. Wheat plants (variety Yuma) were grown from seed in a greenhouse in 50% mineral soil/50% soil-less Metro mix until the first leaf was fully emerged, with 7-10 seedlings per pot. These plants were inoculated with an aqueous spore suspension of Septoria tritici either prior to or after fungicide treatments. After inoculation the plants were kept in 100% relative humidity (one day in a dark dew chamber followed by two to three days in a lighted dew chamber at 20° C.) to permit spores to germinate and infect the leaf. The plants were then transferred to a greenhouse set at 20° C. for disease to develop. When disease symptoms were fully expressed on the 1st leaves of untreated plants, infection levels were assessed on a scale of 0 to 100 percent disease severity. Percent disease control was calculated using the ratio of disease severity on treated plants relative to untreated plants. Grape seedlings (variety Carignane) were grown in soil-less Metro mix, with one plant per pot, and used in the test when approximately one month old. Plants were inoculated 24 hr after fungicide treatment by shaking spores from infected leaves over test plants. Plants were maintained in a greenhouse set at 20° C. until disease was fully developed. Fungicide formulation, application and disease assessment on the sprayed leaves followed the procedures as described in the Example A.

| SMILES | pest or weed control at 100 ppm (Cercospora beticola) [%] | pest or weed control at 100 ppm (Rhyncosporium secalis) [%] | pest or weed control at 100 ppm [1] [%] | pest or weed control at 100 ppm (Uncinula necator) [%] |
| --- | --- | --- | --- | --- |
| CCCO[C@@H]1[C@@H](Cc2ccccc2)CCC[C@H](NC(=O)c2nccc(OC)c2OC(C)=O)C(=O)O[C@H]1C [Compound F88] | 80 to 100 | 80 to 100 | 80 to 100 | 80 to 100 |
| CCCO[C@@H]1[C@@H](Cc2ccc(F)cc2)CCC[C@H](NC(=O)c2nccc(OC)c2OCOC(C)=O)C(=O)O[C@H]1C [Compound F101] | 80 to 100 | 80 to 100 | 80 to 100 | 80 to 100 |
| CCOCC(=O)OCOc1c(OC)ccnc1C(=O)N[C@H]1CCC[C@H](Cc2ccc(F)cc2F)[C@@H](OC(=O)c2ccco2)[C@H](C)OC1=O [Compound F193] | 80 to 100 | 80 to 100 | 80 to 100 | 0 to 80 |
| CC[C@H]1CCC[C@H](NC(=O)c2nccc(OC)c2OC(C)=O)C(=O)O[C@@H](C)[C@@H]1Oc1ccccc1 [Compound F81] | 80 to 100 | 80 to 100 | 80 to 100 | 80 to 100 |
| COc1ccnc(C(=O)N[C@H]2CCC[C@H](CC3CCCC3)[C@@H](OCC3CC3)[C@H](C)OC2=O)c1OCOC(C)=O [Compound F117] | 80 to 100 | 80 to 100 | 80 to 100 | 80 to 100 |
| COc1ccnc(C(=O)N[C@H]2CCC[C@H](Cc3ccccc3)[C@@H](OCC3CC3)[C@H](C)OC2=O)c1OCOC(C)=O [Compound F107] | 80 to 100 | 80 to 100 | 80 to 100 | 0 to 80 |
| COc1ccnc(C(=O)N[C@H]2CCC[C@H](Cc3ccc(F)cc3)[C@@H](OCC3CC3)[C@H](C)OC2=O)c1OCOC(C)=O [Compound F96] | 80 to 100 | 80 to 100 | 80 to 100 | 80 to 100 |
| CCCO[C@@H]1[C@@H](Cc2ccccc2)CCC[C@H](NC(=O)c2nccc(OC)c2OCOC(=O)COCC)C(=O)O[C@H]1C [Compound F174] | 80 to 100 | 80 to 100 | 80 to 100 | 80 to 100 |
| COc1ccnc(C(=O)N[C@H]2CCC[C@H](CC(F)F)[C@@H](Oc3ccccc3)[C@H](C)OC2=O)c1OC(C)=O [Compound F82] | 80 to 100 | 0 to 80 | 80 to 100 | 0 to 80 |
| CCOCC(=O)OCOc1c(OC)ccnc1C(=O)N[C@H]1CCC[C@H](Cc2ccc(F)cc2)[C@@H](OCC2CC2)[C@H](C)OC1=O [Compound F164] | 80 to 100 | 80 to 100 | 80 to 100 | 80 to 100 |
| COCC[C@H]1CCC[C@H](NC(=O)c2nccc(OC)c2OCOC(C)=O)C(=O)O[C@@H](C)[C@@H]1Oc1ccccc1 [Compound F130] | 0 to 80 | 80 to 100 | 80 to 100 | 0 to 80 |
| COc1ccnc(C(=O)N[C@H]2CCC[C@H](Cc3ccc(F)cc3F)[C@@H](OCC(C)C)[C@H](C)OC2=O)c1OCOC(C)=O [Compound F145] | 80 to 100 | 80 to 100 | 80 to 100 | 80 to 100 |
| COc1ccnc(C(=O)N[C@H]2CCC[C@H](Cc3ccccc3)[C@@H](OCC(C)C)[C@H](C)OC2=O)c1OCOC(C)=O [Compound F106] | 80 to 100 | 80 to 100 | 80 to 100 | 80 to 100 |
| CCCO[C@@H]1[C@@H](Cc2ccc(F)cc2)CCC[C@H](NC(=O)c2nccc(OC)c2OCOC(=O)COCC)C(=O)O[C@H]1C [Compound F167] | 80 to 100 | 80 to 100 | 80 to 100 | 80 to 100 |
| CCCO[C@@H]1[C@@H](CCC(C)C)CCC[C@H](NC(=O)c2nccc(OC)c2OCOC(C)=O)C(=O)O[C@H]1C [Compound F92] | 80 to 100 | 80 to 100 | 80 to 100 | 80 to 100 |
